The record followed here is patent US20030158254A1, “Engineering absorption of therapeutic compounds via colonic transporters” (XenoPort, Inc., priority 2002, published 2003).

This test deals with T1, rat PEPT1 (Rattus norvegicus, UniProt P51574).
T1 construct: Rat and human PEPT1 and PEPT2 transporter cDNAs were subcloned into a modified pGEM plasmid; expressed in transfected cells; host or cells: Xenopus laevis oocytes injected with in vitro transcribed RNA
T1 sequence (P51574 1-710): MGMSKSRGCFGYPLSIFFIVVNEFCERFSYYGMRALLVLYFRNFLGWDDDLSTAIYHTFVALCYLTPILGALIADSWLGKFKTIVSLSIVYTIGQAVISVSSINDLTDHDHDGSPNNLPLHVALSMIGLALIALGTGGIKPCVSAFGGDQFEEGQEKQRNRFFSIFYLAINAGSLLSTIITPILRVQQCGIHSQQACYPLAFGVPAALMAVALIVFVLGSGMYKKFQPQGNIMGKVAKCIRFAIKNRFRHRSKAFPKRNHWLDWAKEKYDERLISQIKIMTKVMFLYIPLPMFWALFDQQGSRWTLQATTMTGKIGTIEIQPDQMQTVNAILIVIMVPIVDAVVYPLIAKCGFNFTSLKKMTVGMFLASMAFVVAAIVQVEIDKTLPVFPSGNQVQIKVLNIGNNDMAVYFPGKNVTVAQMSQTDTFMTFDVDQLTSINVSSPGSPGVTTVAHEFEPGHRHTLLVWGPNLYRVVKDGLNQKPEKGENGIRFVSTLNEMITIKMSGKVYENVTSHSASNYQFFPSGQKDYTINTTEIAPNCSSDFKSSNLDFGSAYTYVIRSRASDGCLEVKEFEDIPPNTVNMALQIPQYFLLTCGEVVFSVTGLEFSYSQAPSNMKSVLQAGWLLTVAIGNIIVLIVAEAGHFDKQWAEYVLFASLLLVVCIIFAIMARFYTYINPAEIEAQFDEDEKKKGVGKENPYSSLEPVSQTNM
As to the kind of experiment: Electrogenic transport (induced current) in Xenopus oocytes transfected with rat PEPT1. The format is cell-based. How it is done: Rat and human PEPT1 and PEPT2 expressing CHO cell lines were prepared as described in PCT Application WO01/20331. Gabapentin-containing dipeptides were evaluated for interaction with the peptide transporters using a radiolabeled substrate uptake assay in a competitive inhibition format, as described in PCT Application WO01/20331. Transport-induced currents were also measured in Xenopus oocytes transfected with rat and human PEPT1 and PEPT2.
RNA preparation: Rat and human PEPT1 and PEPT2 transporter cDNAs were subcloned into a modified pGEM plasmid that contains 5′ and 3′ untranslated sequences from the Xenopus β-actin gene. These sequences increase RNA stability and protein expression. Plasmid cDNA was linearized and used as template for in vitro transcription (Epicentre Technologies transcription kit, 4:1 methylated:non-methylated guanosine triphosphate(GTP)).
Xenopus oocyte isolation. Xenopus laevis frogs were anesthetized by immersion in Tricaine ([…] in deionized water) for 15 min. […]
Electrophysiology measurements. Transport currents were measured 2-14 days after injection, using a standard two-electrode electrophysiology set-up (Geneclamp 500 amplifier, Digidata 1320/PCLAMP software and ADInstruments hardware and software were used for signal acquisition). […]

Take `CC(C)(N)C(=O)NCC1(CC(=O)O)CCCCC1` [Compound V, a-aminoisobutyryl gabapentin]: the “Vmax relative to reference substrate Gly-Sar” value (1 mM, oocytes transfected with rat PEPT1) is recorded as 50%. Also, the “Vmax relative to Gly-Sar in the presence of PEPT inhibitor Lys(ε-Dansyl)-Leu” value (rat PEPT transfected oocytes, with Lys(ε-Dansyl)-Leu) is reported as less than 5%.
